From patent US20140357512A1, “HISTONE DEACETYLASE (HDAC) BIOMARKERS IN MULTIPLE MYELOMA” (priority 2013, published 2014)

System: human myeloma cell line MM.1S
Assay: Biological pathway analysis of SILAC biomarker peptides against pathway database (broadinstitute gsea)
Method: Once biomarker peptides are identified for a specific drug by the SILAC method, the biomarker peptides may be compared to peptides/proteins in a biological pathway database in order to identify major biological pathways or functions implicated by the drug's action. A preferred pathway analysis website is at www dot broadinstitute dot org/gsea/index dot jsp.
This example describes the biological pathway analysis that was performed on each of Compound A, Compound B, and Tubastatin A.
Once biomarker peptides were identified for a specific drug (either Compound A, Compound B, or Tubastatin A) by the SILAC method in Example 1, the biomarker peptides were compared to peptides/proteins in the biological pathway database at www dot broadinstitute dot org/gsea/index dot jsp in order to identify major biological pathways or functions implicated by the drug's action.

Compound: O=C(CCCCCCNC(=O)c1cnc(N(c2ccccc2)c2ccccc2)nc1)NO [Compound A, 2-(diphenylamino)-N-(7-(hydroxyamino)-7-oxoheptyl)pyrimidine-5-carboxamide]
- Observed: number of genes in pathway REACTOME_PACKAGING_OF_TELOMERE_ENDS (Pathway_size 48): 35
- Ratio observed/pathway size, REACTOME_PACKAGING_OF_TELOMERE_ENDS (Pathway_size 48): 0.7292
- Observed: number of genes in pathway REACTOME_RNA_POL_I_PROMOTER_OPENING (Pathway_size 61): 49
- Ratio observed/pathway size, REACTOME_RNA_POL_I_PROMOTER_OPENING (Pathway_size 61): 0.8033
- Observed: number of genes in pathway REACTOME_DEPOSITION_OF_NEW_CENPA_CONTAINING_NUCLEOSOMES_AT_THE_CENTROMERE (Pathway_size 64): 34
- Ratio observed/pathway size, REACTOME_DEPOSITION_OF_NEW_CENPA_CONTAINING_NUCLEOSOMES_AT_THE_CENTROMERE (Pathway_size 64): 0.5312
- Observed: number of genes in pathway […]_UNKNOWN (Pathway_size 66): 32
- Ratio observed/pathway size, […]_UNKNOWN (Pathway_size 66): 0.4848
- Observed: number of genes in pathway GCM_TPT1 (Pathway_size 70): 37
- Ratio observed/pathway size, GCM_TPT1 (Pathway_size 70): 0.5286
- Observed: number of genes in pathway REACTOME_MEIOTIC_SYNAPSIS (Pathway_size 71): 35
- Ratio observed/pathway size, REACTOME_MEIOTIC_SYNAPSIS (Pathway_size 71): 0.493
- Observed: number of genes in pathway REACTOME_TELOMERE_MAINTENANCE (Pathway_size 75): 36
- Ratio observed/pathway size, REACTOME_TELOMERE_MAINTENANCE (Pathway_size 75): 0.48
- Observed: number of genes in pathway STRUCTURAL_CONSTITUENT_OF_RIBOSOME (Pathway_size 80): 33
- Ratio observed/pathway size, STRUCTURAL_CONSTITUENT_OF_RIBOSOME (Pathway_size 80): 0.4125
- Observed: number of genes in pathway MIPS_RIBOSOME_CYTOPLASMIC (Pathway_size 81): 42
- Observed: number of genes in pathway REACTOME_AMYLOIDS (Pathway_size 81): 49
- Ratio observed/pathway size, MIPS_RIBOSOME_CYTOPLASMIC (Pathway_size 81): 0.5185
- Ratio observed/pathway size, REACTOME_AMYLOIDS (Pathway_size 81): 0.6049
- Observed: number of genes in pathway REACTOME_MEIOTIC_RECOMBINATION (Pathway_size 84): 50
- Ratio observed/pathway size, REACTOME_MEIOTIC_RECOMBINATION (Pathway_size 84): 0.5952
- Observed: number of genes in pathway REACTOME_RNA_POL_I_TRANSCRIPTION (Pathway_size 86): 50
- Ratio observed/pathway size, REACTOME_RNA_POL_I_TRANSCRIPTION (Pathway_size 86): 0.5814
- Observed: number of genes in pathway KEGG_RIBOSOME (Pathway_size 88): 42
- Ratio observed/pathway size, KEGG_RIBOSOME (Pathway_size 88): 0.4773
- Observed: number of genes in pathway MORF_TPT1 (Pathway_size 102): 40
- Ratio observed/pathway size, MORF_TPT1 (Pathway_size 102): 0.3922
- Observed: number of genes in pathway MIPS_NOP56P_ASSOCIATED_PRE_RRNA_COMPLEX (Pathway_size 104): 44
- Ratio observed/pathway size, MIPS_NOP56P_ASSOCIATED_PRE_RRNA_COMPLEX (Pathway_size 104): 0.4231
- Observed: number of genes in pathway REACTOME_MEIOSIS (Pathway_size 112): 50
- Ratio observed/pathway size, REACTOME_MEIOSIS (Pathway_size 112): 0.4464
- Observed: number of genes in pathway GCM_NPM1 (Pathway_size 116): 41
- Ratio observed/pathway size, GCM_NPM1 (Pathway_size 116): 0.3534
- Observed: number of genes in pathway REACTOME_RNA_POL_I_RNA_POL_III_AND_MITOCHONDRIAL_TRANSCRIPTION (Pathway_size 119): 50
- Ratio observed/pathway size, REACTOME_RNA_POL_I_RNA_POL_III_AND_MITOCHONDRIAL_TRANSCRIPTION (Pathway_size 119): 0.4202
- Observed: number of genes in pathway GNF2_EIF3S6 (Pathway_size 121): 41
- Ratio observed/pathway size, GNF2_EIF3S6 (Pathway_size 121): 0.3388
- Observed: number of genes in pathway GCM_ACTG1 (Pathway_size 124): 39
- Ratio observed/pathway size, GCM_ACTG1 (Pathway_size 124): 0.3145
- Observed: number of genes in pathway MORF_ACTG1 (Pathway_size 138): 53
- Ratio observed/pathway size, MORF_ACTG1 (Pathway_size 138): 0.3841
- Observed: number of genes in pathway KEGG_SYSTEMIC_LUPUS_ERYTHEMATOSUS (Pathway_size 139): 54
- Ratio observed/pathway size, KEGG_SYSTEMIC_LUPUS_ERYTHEMATOSUS (Pathway_size 139): 0.3885
- Observed: number of genes in pathway REACTOME_PEPTIDE_CHAIN_ELONGATION (Pathway_size 145): 41
- Ratio observed/pathway size, REACTOME_PEPTIDE_CHAIN_ELONGATION (Pathway_size 145): 0.2828
- Observed: number of genes in pathway MORF_NME2 (Pathway_size 154): 48
- Ratio observed/pathway size, MORF_NME2 (Pathway_size 154): 0.3117
- Observed: number of genes in pathway REACTOME_INFLUENZA_VIRAL_RNA_TRANSCRIPTION_AND_REPLICATION (Pathway_size 161): 42
- Ratio observed/pathway size, REACTOME_INFLUENZA_VIRAL_RNA_TRANSCRIPTION_AND_REPLICATION (Pathway_size 161): 0.2609
- Observed: number of genes in pathway MORF_NPM1 (Pathway_size 162): 59
- Ratio observed/pathway size, MORF_NPM1 (Pathway_size 162): 0.3642
- Observed: number of genes in pathway REACTOME_3_UTR_MEDIATED_TRANSLATIONAL_REGULATION (Pathway_size 166): 43
- Ratio observed/pathway size, REACTOME_3_UTR_MEDIATED_TRANSLATIONAL_REGULATION (Pathway_size 166): 0.259
- Observed: number of genes in pathway REACTOME_NONSENSE_MEDIATED_DECAY_ENHANCED_BY_THE_EXON_JUNCTION_COMPLEX (Pathway_size 167): 41
- Ratio observed/pathway size, REACTOME_NONSENSE_MEDIATED_DECAY_ENHANCED_BY_THE_EXON_JUNCTION_COMPLEX (Pathway_size 167): 0.2455
- Observed: number of genes in pathway REACTOME_SRP_DEPENDENT_COTRANSLATIONAL_PROTEIN_TARGETING_TO_MEMBRANE (Pathway_size 170): 46
- Ratio observed/pathway size, REACTOME_SRP_DEPENDENT_COTRANSLATIONAL_PROTEIN_TARGETING_TO_MEMBRANE (Pathway_size 170): 0.2706
- Observed: number of genes in pathway REACTOME_INFLUENZA_LIFE_CYCLE (Pathway_size 195): 47
- Ratio observed/pathway size, REACTOME_INFLUENZA_LIFE_CYCLE (Pathway_size 195): 0.241
- Observed: number of genes in pathway MORF_ANP32B (Pathway_size 197): 43
- Ratio observed/pathway size, MORF_ANP32B (Pathway_size 197): 0.2183
- Observed: number of genes in pathway REACTOME_TRANSCRIPTION (Pathway_size 207): 53
- Ratio observed/pathway size, REACTOME_TRANSCRIPTION (Pathway_size 207): 0.256
- Observed: number of genes in pathway REACTOME_TRANSLATION (Pathway_size 211): 48
- Ratio observed/pathway size, REACTOME_TRANSLATION (Pathway_size 211): 0.2275
- Observed: number of genes in pathway MORF_UBE2I (Pathway_size 238): 55
- Ratio observed/pathway size, MORF_UBE2I (Pathway_size 238): 0.2311
- Observed: number of genes in pathway MORF_RAN (Pathway_size 268): 53
- Ratio observed/pathway size, MORF_RAN (Pathway_size 268): 0.1978
- Observed: number of genes in pathway MODULE_151 (Pathway_size 318): 61
- Ratio observed/pathway size, MODULE_151 (Pathway_size 318): 0.1918
- Observed: number of genes in pathway MODULE_83 (Pathway_size 320): 65
- Ratio observed/pathway size, MODULE_83 (Pathway_size 320): 0.2031
- Observed: number of genes in pathway MODULE_114 (Pathway_size 338): 64
- Ratio observed/pathway size, MODULE_114 (Pathway_size 338): 0.1893
- Observed: number of genes in pathway HSIAO_HOUSEKEEPING_GENES (Pathway_size 389): 87
- Ratio observed/pathway size, HSIAO_HOUSEKEEPING_GENES (Pathway_size 389): 0.2236
- Observed: number of genes in pathway MOOTHA_HUMAN_MITODB_6_2002 (Pathway_size 429): 66
- Ratio observed/pathway size, MOOTHA_HUMAN_MITODB_6_2002 (Pathway_size 429): 0.1538
- Observed: number of genes in pathway MOOTHA_MITOCHONDRIA (Pathway_size 447): 57
- Ratio observed/pathway size, MOOTHA_MITOCHONDRIA (Pathway_size 447): 0.1275
- Observed: number of genes in pathway REACTOME_METABOLISM_OF_PROTEINS (Pathway_size 496): 69
- Ratio observed/pathway size, REACTOME_METABOLISM_OF_PROTEINS (Pathway_size 496): 0.1391
- Observed: number of genes in pathway KIM_BIPOLAR_DISORDER_OLIGODENDROCYTE_DENSITY_CORR_UP (Pathway_size 681): 64
- Ratio observed/pathway size, KIM_BIPOLAR_DISORDER_OLIGODENDROCYTE_DENSITY_CORR_UP (Pathway_size 681): 0.09398
- Observed: number of genes in pathway MARTENS_TRETINOIN_RESPONSE_DN (Pathway_size 841): 69
- Ratio observed/pathway size, MARTENS_TRETINOIN_RESPONSE_DN (Pathway_size 841): 0.08205
- Observed: number of genes in pathway GRADE_COLON_CANCER_UP (Pathway_size 870): 75
- Ratio observed/pathway size, GRADE_COLON_CANCER_UP (Pathway_size 870): 0.08621
- Observed: number of genes in pathway DANG_BOUND_BY_MYC (Pathway_size 1102): 88
- Ratio observed/pathway size, DANG_BOUND_BY_MYC (Pathway_size 1102): 0.07985
- Observed: number of genes in pathway BLALOCK_ALZHEIMERS_DISEASE_DN (Pathway_size 1237): 81
- Ratio observed/pathway size, BLALOCK_ALZHEIMERS_DISEASE_DN (Pathway_size 1237): 0.06548
- Observed: number of genes in pathway CYTOPLASMIC_PART (Pathway_size 1383): 96
- Ratio observed/pathway size, CYTOPLASMIC_PART (Pathway_size 1383): 0.06941
- Observed: number of genes in pathway PUJANA_BRCA1_PCC_NETWORK (Pathway_size 1651): 107
- Ratio observed/pathway size, PUJANA_BRCA1_PCC_NETWORK (Pathway_size 1651): 0.06481
- Observed: number of genes in pathway CYTOPLASM (Pathway_size 2130): 117
- Ratio observed/pathway size, CYTOPLASM (Pathway_size 2130): 0.05493
